Measurements: the supplement of paper PMC10307832

What was measured:
Assay in all cases: relative viability (nuclei count vs DMSO), 5 days (fraction); higher = more cells survive
201T = system: 201T
Outline: (§1)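 Medians of duplicate plates are given as relative viability. That measure is the nuclei count in treated wells divided by the count in vehicle wells. Counts were taken on 4× images of lung cancer cell lines in 1536-well plates, 5 days after pin-tool dosing the day after seeding with one drug alone or a fixed anchor-drug dose plus five library-drug doses (not always all listed) in √10 steps.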

A-427 = system: A-427
Outline: as §1

COR-L23 = system: COR-L23
Outline: as §1

ChaGo-K-1 = system: ChaGo-K-1
Outline: as §1

HARA = system: HARA
Outline: as §1

HCC-15 = system: HCC-15
Outline: as §1

HCC-366 = system: HCC-366
Outline: as §1

HCC-78 = system: HCC-78
Outline: as §1

LCLC-103H = system: LCLC-103H
Outline: as §1

LCLC-97TM1 = system: LCLC-97TM1
Outline: as §1

LOU-NH91 = system: LOU-NH91
Outline: as §1

NCI-H1650 = system: NCI-H1650
Outline: as §1

NCI-H1734 = system: NCI-H1734
Outline: as §1

NCI-H1993 = system: NCI-H1993
Outline: as §1

NCI-H2009 = system: NCI-H2009
Outline: as §1

NCI-H2023 = system: NCI-H2023
Outline: as §1

NCI-H2126 = system: NCI-H2126
Outline: as §1

NCI-H441 = system: NCI-H441
Outline: as §1

NCI-H460 = system: NCI-H460
Outline: as §1

NCI-H650 = system: NCI-H650
Outline: as §1

RERF-LC-KJ = system: RERF-LC-KJ
Outline: as §1

SW 1573 = system: SW 1573
Outline: as §1

## O=c1[nH]c2ccccc2n1C1CCN(CCCC(c2ccc(F)cc2)c2ccc(F)cc2)CC1 [Pimozide] + COc1cc2c(Oc3ccc(NC(=O)C4(C(=O)Nc5ccc(F)cc5)CC4)cc3F)ccnc2cc1OCCCN1CCOCC1 [Foretinib] (partner 0.25 µM)
201T; first compound 0.08 µM
  relative viability: 1.08
201T; first compound 0.253 µM
  relative viability: 1.06
201T; first compound 0.8 µM
  relative viability: 0.979
201T; first compound 2.53 µM
  relative viability: 1.02
201T; first compound 8 µM
  relative viability: 0.909
A-427; first compound 0.08 µM
  relative viability: 1.02
A-427; first compound 0.253 µM
  relative viability: 1.04
A-427; first compound 0.8 µM
  relative viability: 0.976
A-427; first compound 2.53 µM
  relative viability: 0.669
A-427; first compound 8 µM
  relative viability: 0.966
COR-L23; first compound 0.08 µM
  relative viability: 1.01
COR-L23; first compound 0.253 µM
  relative viability: 0.951
COR-L23; first compound 0.8 µM
  relative viability: 0.909
COR-L23; first compound 2.53 µM
  relative viability: 1.05
COR-L23; first compound 8 µM
  relative viability: 0.905
ChaGo-K-1; first compound 0.08 µM
  relative viability: 0.937
ChaGo-K-1; first compound 0.253 µM
  relative viability: 0.899
ChaGo-K-1; first compound 0.8 µM
  relative viability: 0.879
ChaGo-K-1; first compound 2.53 µM
  relative viability: 0.811
ChaGo-K-1; first compound 8 µM
  relative viability: 0.908
HARA; first compound 0.253 µM
  relative viability: 0.874
HARA; first compound 0.8 µM
  relative viability: 0.873
HARA; first compound 2.53 µM
  relative viability: 0.733
HARA; first compound 8 µM
  relative viability: 0.766
HCC-15; first compound 0.08 µM
  relative viability: 1.09
HCC-15; first compound 0.253 µM
  relative viability: 1.01
HCC-15; first compound 0.8 µM
  relative viability: 0.868
HCC-15; first compound 2.53 µM
  relative viability: 0.964
HCC-15; first compound 8 µM
  relative viability: 0.94
HCC-366; first compound 0.08 µM
  relative viability: 0.862
HCC-366; first compound 0.253 µM
  relative viability: 0.952
HCC-366; first compound 0.8 µM
  relative viability: 0.866
HCC-366; first compound 2.53 µM
  relative viability: 0.925
HCC-366; first compound 8 µM
  relative viability: 0.859
HCC-78; first compound 0.08 µM
  relative viability: 0.536
HCC-78; first compound 0.8 µM
  relative viability: 0.482
HCC-78; first compound 2.53 µM
  relative viability: 0.564
HCC-78; first compound 8 µM
  relative viability: 0.573
LCLC-103H; first compound 0.08 µM
  relative viability: 0.946
LCLC-103H; first compound 0.253 µM
  relative viability: 0.716
LCLC-103H; first compound 0.8 µM
  relative viability: 0.747
LCLC-103H; first compound 2.53 µM
  relative viability: 0.678
LCLC-103H; first compound 8 µM
  relative viability: 0.591
LCLC-97TM1; first compound 0.08 µM
  relative viability: 0.926
LCLC-97TM1; first compound 0.253 µM
  relative viability: 1.03
LCLC-97TM1; first compound 0.8 µM
  relative viability: 0.823
LCLC-97TM1; first compound 2.53 µM
  relative viability: 0.852
LCLC-97TM1; first compound 8 µM
  relative viability: 0.789
LOU-NH91; first compound 0.08 µM
  relative viability: 0.586
LOU-NH91; first compound 0.253 µM
  relative viability: 0.743
LOU-NH91; first compound 0.8 µM
  relative viability: 0.879
LOU-NH91; first compound 2.53 µM
  relative viability: 0.944
LOU-NH91; first compound 8 µM
  relative viability: 0.888
NCI-H1650; first compound 0.08 µM
  relative viability: 0.72
NCI-H1650; first compound 0.253 µM
  relative viability: 1.23
NCI-H1650; first compound 0.8 µM
  relative viability: 0.959
NCI-H1650; first compound 2.53 µM
  relative viability: 1.17
NCI-H1650; first compound 8 µM
  relative viability: 0.933
NCI-H1734; first compound 0.08 µM
  relative viability: 0.77
NCI-H1734; first compound 0.253 µM
  relative viability: 0.767
NCI-H1734; first compound 2.53 µM
  relative viability: 0.883
NCI-H1734; first compound 8 µM
  relative viability: 0.834
NCI-H1993; first compound 0.08 µM
  relative viability: 0.705
NCI-H1993; first compound 0.253 µM
  relative viability: 0.777
NCI-H1993; first compound 0.8 µM
  relative viability: 0.727
NCI-H1993; first compound 2.53 µM
  relative viability: 0.788
NCI-H1993; first compound 8 µM
  relative viability: 0.851
NCI-H2009; first compound 0.08 µM
  relative viability: 1.24
NCI-H2009; first compound 0.253 µM
  relative viability: 1.12
NCI-H2009; first compound 0.8 µM
  relative viability: 1.19
NCI-H2009; first compound 2.53 µM
  relative viability: 1.09
NCI-H2009; first compound 8 µM
  relative viability: 1.13
NCI-H2023; first compound 0.08 µM
  relative viability: 0.687
NCI-H2023; first compound 0.253 µM
  relative viability: 0.916
NCI-H2023; first compound 0.8 µM
  relative viability: 0.91
NCI-H2023; first compound 2.53 µM
  relative viability: 0.705
NCI-H2023; first compound 8 µM
  relative viability: 0.64
NCI-H2126; first compound 0.08 µM
  relative viability: 1.39
NCI-H2126; first compound 0.253 µM
  relative viability: 1.14
NCI-H2126; first compound 0.8 µM
  relative viability: 1.06
NCI-H2126; first compound 2.53 µM
  relative viability: 1.23
NCI-H2126; first compound 8 µM
  relative viability: 1.13
NCI-H441; first compound 0.08 µM
  relative viability: 1.09
NCI-H441; first compound 0.253 µM
  relative viability: 1.16
NCI-H441; first compound 0.8 µM
  relative viability: 1.1
NCI-H441; first compound 2.53 µM
  relative viability: 0.948
NCI-H441; first compound 8 µM
  relative viability: 0.922
NCI-H460; first compound 0.08 µM
  relative viability: 0.973
NCI-H460; first compound 0.253 µM
  relative viability: 1.03
NCI-H460; first compound 0.8 µM
  relative viability: 0.872
NCI-H460; first compound 2.53 µM
  relative viability: 0.864
NCI-H460; first compound 8 µM
  relative viability: 0.867
NCI-H650; first compound 0.08 µM
  relative viability: 1.07
NCI-H650; first compound 0.253 µM
  relative viability: 1.02
NCI-H650; first compound 0.8 µM
  relative viability: 1
NCI-H650; first compound 2.53 µM
  relative viability: 1.04
NCI-H650; first compound 8 µM
  relative viability: 1.04
RERF-LC-KJ; first compound 0.08 µM
  relative viability: 0.907
RERF-LC-KJ; first compound 0.253 µM
  relative viability: 0.844
RERF-LC-KJ; first compound 0.8 µM
  relative viability: 0.831
RERF-LC-KJ; first compound 2.53 µM
  relative viability: 0.821
RERF-LC-KJ; first compound 8 µM
  relative viability: 0.848
SW 1573; first compound 0.08 µM
  relative viability: 0.803
SW 1573; first compound 0.253 µM
  relative viability: 0.946
SW 1573; first compound 0.8 µM
  relative viability: 0.86
SW 1573; first compound 2.53 µM
  relative viability: 0.892
SW 1573; first compound 8 µM
  relative viability: 1.04
